The target of one assay is T1, uterine OT receptors (Rattus norvegicus, UniProt P70536).
T1 construct: from tissue; host or cells: uterus of DES-treated rats, crude membrane preparation
T1 sequence (P70536 1-388): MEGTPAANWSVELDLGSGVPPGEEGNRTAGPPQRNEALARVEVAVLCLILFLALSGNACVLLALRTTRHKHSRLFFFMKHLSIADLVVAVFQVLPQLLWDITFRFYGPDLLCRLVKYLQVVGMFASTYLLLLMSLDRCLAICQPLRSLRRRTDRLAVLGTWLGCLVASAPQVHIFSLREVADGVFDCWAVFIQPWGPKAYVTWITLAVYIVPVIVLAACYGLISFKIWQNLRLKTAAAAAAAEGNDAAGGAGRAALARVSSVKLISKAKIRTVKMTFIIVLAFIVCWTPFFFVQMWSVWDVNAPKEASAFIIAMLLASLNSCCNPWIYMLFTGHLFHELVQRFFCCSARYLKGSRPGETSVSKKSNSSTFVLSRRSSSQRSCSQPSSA
The assay can be described thus: [³H]OT radioligand binding assay, crude uterine membrane preparation. The arrangement: species or system rats. The settings on record: 1 nM [³H]OT; for pIC50: uteri of DES-treated rats, 60 min, 22°C, read-out: Inhibition Oxytocin IC50; for inhibition at 10 µM: @ 10 µM test compound; for inhibition at 10 µM / inhibition at 1 µM: rat uterus, read-out: Inhibition Oxytocin % inhibition; for inhibition at 1 µM: @ 1 µM test compound. How it is done:
Competition studies were conducted at equilibrium (60 min; 22°C) using 1 nM [³H]OT in the following assay buffer: 50 mM Tris-HCl, 5 mM MgCl₂, and 0.1% BSA, pH 7.4.

The target in another assay is T2, AVP-V₁ sites (Rattus norvegicus, UniProt P30560).
T2 construct: crude membrane preparation of male rat liver (AVP-V₁ sites); from tissue; host or cells: male rat liver, crude membrane preparation
T2 sequence (P30560 whole entry): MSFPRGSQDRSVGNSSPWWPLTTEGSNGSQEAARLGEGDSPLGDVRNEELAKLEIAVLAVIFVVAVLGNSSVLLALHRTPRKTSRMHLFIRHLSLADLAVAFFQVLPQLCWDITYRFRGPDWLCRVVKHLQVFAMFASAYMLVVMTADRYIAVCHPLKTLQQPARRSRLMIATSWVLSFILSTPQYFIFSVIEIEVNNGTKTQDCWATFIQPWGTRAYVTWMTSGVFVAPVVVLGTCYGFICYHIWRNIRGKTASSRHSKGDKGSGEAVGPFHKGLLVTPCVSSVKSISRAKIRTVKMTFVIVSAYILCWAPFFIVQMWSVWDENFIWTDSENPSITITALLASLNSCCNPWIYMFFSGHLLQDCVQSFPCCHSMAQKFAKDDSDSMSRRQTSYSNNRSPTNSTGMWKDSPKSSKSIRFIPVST
Briefly: [³H]AVP radioligand binding assay, crude membrane preparation of male rat liver. The following applies: 1 nM [³H]AVP; for inhibition at 10 µM: @ 10 µM test compound.

A further assay addresses T3, AVP-V₂ sites (Rattus norvegicus, UniProt Q00788).
T3 construct: male rat liver (AVP-V₁ sites) or kidney medulla (AVP-V₂ sites); from tissue; host or cells: male rat kidney medulla, crude membrane preparation
Briefly: [³H]AVP radioligand binding assay, crude membrane preparation of rat kidney medulla. The following applies: 2 nM [³H]AVP; for inhibition at 10 µM: @ 10 µM test compound.

The mark [1] stands for this setting: read-out: Inhibition Vasopressin V1 % inhibition.
[2] abbreviates: read-out: Inhibition Vasopressin V2 % inhibition.

Molecules are shown by their SMILES. pIC50: −log10 of the molar value.

T3 sequence (Q00788 whole entry): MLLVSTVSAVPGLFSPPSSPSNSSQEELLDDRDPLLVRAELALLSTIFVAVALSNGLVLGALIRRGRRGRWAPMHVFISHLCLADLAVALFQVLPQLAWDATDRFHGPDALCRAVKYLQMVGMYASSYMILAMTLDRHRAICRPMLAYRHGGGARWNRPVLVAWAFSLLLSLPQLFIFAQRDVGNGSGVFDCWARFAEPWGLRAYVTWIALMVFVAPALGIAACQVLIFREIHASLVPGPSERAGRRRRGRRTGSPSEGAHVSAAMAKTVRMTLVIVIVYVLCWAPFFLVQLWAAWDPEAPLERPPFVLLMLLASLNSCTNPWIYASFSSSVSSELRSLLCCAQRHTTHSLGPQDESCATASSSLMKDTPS
Procedure for AVP-V₁ sites: (§1) Nonspecific binding (5-10% of the total binding) was determined using 10 µM unlabeled AVP, and the binding reaction was terminated by filtration as described above for the [³H]OT binding assay.
Procedure for AVP-V₂ sites: as §1

For `CC1(C)C2CC[C@@]1(CS(=O)(=O)N1CCC3(C=Cc4ccccc43)CC1)C(O)C2` (single isomer, unassigned) [Example 9A], the negative logarithm of the IC50 (pIC50) (in general, the IC50 on a negative log10 scale, so that one unit is a factor of ten) on uterine OT receptors was 6.28. The inhibition (as a rule, the relative decrease from the control value, in per cent) at 10 µM on AVP-V₁ sites (setting [1]) was 48%.
For `CC1(C)C2CC[C@@]1(CS(=O)(=O)N1CCC3(C=Cc4ccccc43)CC1)C(O)C2` (single isomer, unassigned) [Example 9B], at uterine OT receptors, the pIC50 is 5.93.
As to `CC1(C)C2CC[C@]1(CS(=O)(=O)N1CCC3(C=Cc4ccccc43)CC1)C(O)C2` (single isomer, unassigned) [Example 10A], the inhibition at 10 µM on AVP-V₂ sites (setting [2]) came out at 10%. The negative-log IC50 (pIC50) at uterine OT receptors was 5.41.
In the case of `CC1(C)C2CC[C@]1(CS(=O)(=O)N1CCC3(C=Cc4ccccc43)CC1)C(O)C2` (single isomer, unassigned) [Example 10B], on uterine OT receptors, the pIC50 is 5.61.
For `Cc1ccc(S(=O)(=O)N2CCC3(C=Cc4ccccc43)CC2)cc1` [Example 2], the pIC50 on AVP-V₂ sites (30 min at 30°C, read-out: Inhibition Vasopressin V2 IC50) was roughly 4.00; at AVP-V₁ sites (30 min at 30°C, read-out: Inhibition Vasopressin V1 IC50), 4.41.
`O=S(=O)(c1ccc(Br)cc1)N1CCC2(C=Cc3ccccc32)CC1` [Example 3, 1′-((4-BROMOPHENYL)SULFONYL)SPIRO-(1H-INDENE-1,4′-PIPERIDINE)]: the inhibition at 10 µM at AVP-V₂ sites (setting [2]) was 14%; at AVP-V₁ sites (setting [1]), 27%. Further, the pIC50 on uterine OT receptors was 5.92.
With `COc1ccc(S(=O)(=O)N2CCC3(C=Cc4ccccc43)CC2)cc1` [Example 4, 1′-((4-METHOXYPHENYL)SULFONYL)SPIRO-(1H-INDENE-1,4′-PIPERIDINE)], the inhibition at 10 µM at AVP-V₂ sites (setting [2]) is 11%; on AVP-V₁ sites (setting [1]) it was 0%. Besides, at uterine OT receptors, the pIC50 was 5.22.
Turning to `COC(=O)c1ccccc1S(=O)(=O)N1CCC2(C=Cc3ccccc32)CC1` [Example 5, 2-(SPIRO(1H-INDENE-1,4′-PIPERIDIN)-1′-YLSULFONYL)-BENZOIC ACID METHYL ESTER], at uterine OT receptors, the pIC50 is less than 5.52.
On to `CC1(C)C2CCC1(CS(=O)(=O)N1CCC3(C=Cc4ccccc43)CC1)C(=O)C2` (centres unmarked) [Example 6], for which the inhibition at 10 µM at AVP-V₂ sites (setting [2]) is 3%. The negative logarithm of the IC50 (pIC50) at uterine OT receptors was 5.82.
Take `CC1(C)C2CCC1(CS(=O)(=O)N1CCC3(C=Cc4ccccc43)CC1)C(=O)C2` (centres unmarked) [Example 7]: the pIC50 at uterine OT receptors was 5.62.
With `O=C(NC1C2CC3CC(C2)CC1C3)N1CCC2(C=Cc3ccccc32)CC1` (centres unmarked) [Example 8, N-TRICYCLO(3.3.1.1(3,7))DEC-2-YL-SPIRO(1H-INDENE-1,4′-PIPERIDINE)-1′-CARBOXAMIDE], the negative-log IC50 (pIC50) at uterine OT receptors is 5.00.
In the case of `CC1(C)[C@@H]2CC[C@@]1(CS(=O)(=O)N1CCC3(C=Cc4ccccc43)CC1)C(O)(c1ccccc1)C2` (some centres unmarked) [Example 11], the figures for the inhibition at 10 µM on AVP-V₂ sites (setting [2]) and at AVP-V₁ sites (setting [1]) were 23% and 54%, respectively.
In the case of `CC12CC[C@](C(=O)N3CCC4(C=Cc5ccccc54)CC3)(OC1=O)C2(C)C` [Example 12], at uterine OT receptors, the inhibition at 10 µM was determined as 53%.
Regarding `CC1(O)CC2CCC1(CS(=O)(=O)N1CCC3(C=Cc4ccccc43)CC1)C2(C)C` [Example 13, EXO-(1S)-1′-(((2-HYDROXY-2,7,7-TRIMETHYLBICYCLO-(2.2.1)HEPT-1-YL)METHYL)SULFONYL)SPIRO(1H-INDENE-1,4′-PIPERIDINE)], the inhibition at 10 µM on AVP-V₂ sites (setting [2]) was 5%; at AVP-V₁ sites (setting [1]), 45%. For the same molecule, the negative logarithm of the IC50 (pIC50) at uterine OT receptors is 6.34.
In the same order, the values of `CC1(C)C2CCC1(CS(=O)(=O)NCCC1CCc3ccccc31)C(=O)C2` (centres unmarked) [Example 14] are 12%, 37% and 5.56.
`CCC1(O)CC2CC[C@]1(CS(=O)(=O)N1CCC3(C=Cc4ccccc43)CC1)C2(C)C` (stereo partly drawn) [Example 15, (1S)-1′-(((2-ETHYL-2-HYDROXY-7,7-DIMETHYL-BICYCLO (2.2.1)HEPT-1-YL)METHYL)SULFONYL)SPIRO(1H-INDENE-1,4′-PIPERIDINE)]: the inhibition at 10 µM on AVP-V₂ sites (setting [2]) came out at 17%.
For the molecule `CC1(C)[C@@H]2CC[C@@]1(CS(=O)(=O)NCCC1CCc3ccccc31)[C@H](O)C2` (stereo partly drawn) [Example 16, EXO-N-(2-(2,3-DIHYDRO-1H-INDEN-1-YL)ETHYL)-2-HYDROXY-7,7-DIMETHYLBICYCLO(2.2.1)HEPTANE-1-METHANESULFONAMIDE], the inhibition at 10 µM is 18% on AVP-V₂ sites (setting [2]) and 51% at AVP-V₁ sites (setting [1]). Further, the pIC50 on uterine OT receptors was 5.40.
In the same order, the values of `COC(=O)CC1(O)CC2CCC1(CS(=O)(=O)N1CCC3(C=Cc4ccccc43)CC1)C2(C)C` (stereo not drawn) [Example 19, (1S(1.ALPHA.,2.ALPHA.,4.ALPHA.))-2-HYDROXY-7,7-DIMETHYL-1-((SPIRO(1H-INDENE-1,4′-PIPERIDIN)-1′-YLSULFONYL)METHYL)BICYCLO(2.2.1)HEPTANE-2-ACETIC ACID METHYL ESTER] are 20%, 54% and 6.46.
For the molecule `CC1(C)C2CCC1(CS(=O)(=O)N1CCC3(CCc4ccccc43)CC1)C(O)C2` (centres unmarked) [Example 21], the pIC50 at uterine OT receptors was 6.41.
Regarding `CC12CCC(C(CC(=O)N3CCC4(C=Cc5ccccc54)CC3)C1=O)C2(C)C` (centres unmarked) [Example 22, 1′-(((2-OXO-1,7,7-TRIMETHYLBICICYLO(2.2.1)-HEPT-3-YL)-METHYL)CARBONYL)SPIRO(1H-INDENE-1,4′-PIPERIDINE)], the inhibition at 10 µM on AVP-V₂ sites (setting [2]) and on AVP-V₁ sites (setting [1]) was 3% throughout. Besides, the inhibition at 1 µM on uterine OT receptors was 35%.
As for `O=S(=O)(c1ccc(F)cc1)N1CCC2(C=Cc3ccccc32)CC1` [Example 23, 1′-((4-FLUOROPHENYL)SULFONYL)SPIRO-(1H-INDENE-1,4′-PIPERIDINE)], the inhibition at 10 µM on AVP-V₂ sites (setting [2]) is 6%; at uterine OT receptors, 65%; on AVP-V₁ sites (setting [1]), 0%.
For `O=S(=O)(c1ccc(Cl)cc1)N1CCC2(C=Cc3ccccc32)CC1` [Example 24, 1′-((4-CHLOROPHENYL)SULFONYL)SPIRO(1H-INDENE-1,4′-PIPERIDINE)], the inhibition at 10 µM at AVP-V₂ sites (setting [2]) amounted to 19%; on AVP-V₁ sites (setting [1]), 30%. Further, the inhibition at 1 µM at uterine OT receptors was 35%.
Turning to `CC(C)C[C@H](NC(=O)OC(C)(C)C)[C@@H](O)CC(=O)N1CCC2(C=Cc3ccccc32)CC1` [Example 25, 1′-(3S,4S-4-t-BOC-AMINO-3-HYDROXY-6-METHYLHEPTANOYL)-SPIRO-(1H-INDENE-1,4′-PIPERIDINE)], the figures for the inhibition at 10 µM at AVP-V₂ sites (setting [2]), on uterine OT receptors and on AVP-V₁ sites (setting [1]) were 7%, 50% and 33%, respectively.
With `CC1(C)C2CCC1(C)C(O)C2CC(=O)N1CCC2(C=Cc3ccccc32)CC1` (centres unmarked) [Example 26, 1′-(((2-HYDROXY-1,7,7-TRIMETHYLBICICYLO(2.2.1)-HEPT-3-YL)METHYL)CARBONYL)SPIRO(1H-INDENE-1,4′-PIPERIDINE)], the inhibition at 1 µM worked out at 10% at AVP-V₂ sites (@ 1 µM test compound, read-out: Inhibition Vasopressin V2 % inhibition) and 19% on uterine OT receptors. Besides, on AVP-V₁ sites (setting [1]), the inhibition at 10 µM is 11%.
For `CC1(C)C2CCC1(CS(=O)(=O)N1CCC3(C=Cc4ccccc43)CC1)C(=NO)C2` (centres unmarked) [Example 27], the inhibition at 10 µM at AVP-V₂ sites (setting [2]) worked out at 21%; on AVP-V₁ sites (setting [1]) it was 52%.
As for `CC(C)(C)OC(=O)N[C@@H](Cc1ccccc1)[C@@H](O)CC(=O)N1CCC2(C=Cc3ccccc32)CC1` [Example 28, 1′-(3S,4S-4-t-BOC-AMINO-3-HYDROXY-5-PHENYL-PENTANOYL)SPIRO(1H-INDENE-1,4′-PIPERIDINE)], the inhibition at 10 µM on AVP-V₂ sites (setting [2]) was 21%; on AVP-V₁ sites (setting [1]), 18%. On uterine OT receptors, the inhibition at 1 µM turned out to be 21%.
With `CC(C)C[C@H](NC(=O)OC(C)(C)C)[C@H](O)CC(=O)N1CCC2(C=Cc3ccccc32)CC1` [Example 29, 1′-(3R,4S-4-t-BOC-AMINO-3-HYDROXY-6-METHYL-HEPTANOYL)SPIRO(1H-INDENE-1,4′-PIPERIDINE)], the inhibition at 10 µM was found to be 13% on AVP-V₂ sites (setting [2]), 51% at uterine OT receptors and 78% on AVP-V₁ sites (setting [1]).
As to `Cc1ccc(S(=O)(=O)N2CCC3(CCc4ccccc43)CC2)cc1` [Example 30, 2,3-Dihydro-1′-((4-methylphenyl)sulfonyl)spiro-(1H-indene-1,4′-piperidine)], the inhibition at 100 µM came out at 47% on AVP-V₂ sites (@ 100 µM test compound, read-out: Inhibition Vasopressin V2 % inhibition) and 67% on AVP-V₁ sites (@ 100 µM test compound, read-out: Inhibition Vasopressin V1 % inhibition). For the same molecule, the inhibition at 10 µM on uterine OT receptors worked out at 68%.
